Measurements: patent publication US8623649B2, “Method of selecting a cardiomyoctye using intracellular mitochondria as an indicator” (Daiichi Sankyo Company, Limited, priority 2004, dated 2014)
Entries after “also recorded” stand apart in the source; their conditions may differ.

Columns and labels:
Type in all cases: cell-based
[1] = system: cell mixture derived from a whole heart extracted from neonatal rat heart; experiment: Labeling of neonatal rat whole-heart cell mixture with mitochondrial indicator, FACS sorting, anti-Sarcomeric α-Actinin immunostaining; settings: for percentage of cardiomyocyte in cells with relatively higher fluorescent intensity (P5 area): cultured 24 hours
Description: (§1) Neonatal rats 1-3 days after birth were sacrificed by cervical dislocation after ether anesthesia, after which the heart of each rats was isolated. Cardiac ventricle isolated from the heart was treated with 0.025% (w/v) of collagenase (available from Warthington Biomedical Corporation) in serum free D-MEM (High-glucose) medium (available from Invitrogen). By digesting the cardiac ventricle using collagenase, cells were dispersed in the medium to prepare a cell mixture derived from a whole heart.
(§2) Subsequently, the culture medium was replaced by D-MEM (High-glucose) medium (available from Invitrogen) supplemented with 10% (final concentration) of fetal bovine serum (available from JRH Bioscience). Thus prepared cultured cells were incubated in the culture medium containing 100 nM (final concentration) of a mitochondrial indicator, M7512 (available from Molecular Probe) for 10 minutes at 37° C. After incubation, the cells were washed 4 times using the culture medium and further cultured for 24 hours at 37° C.
The cell mixture derived from a whole heart was prepared in accordance with the method described in Example 1 and labeled with M7512. The labeled cell mixture derived from a whole heart was subjected to analysis of distribution of the cells of the cell mixture derived from a whole heart using FACS (registered trademark) (BD, Franklin Lakes, N.J. USA).
In this example, cells of P5 area were sorted as a cardiomyocyte and cells of P6 area were sorted as a non-cardiomyocyte, each then being separately subjected to the cell culture.
(§3) Next, the fixed cells were labeled with a cardiomyocyte marker, mouse anti-Sarcomeric α-Actinin Antibody (available from SIGMA), which were visualized using green fluorescent material-conjugated goat anti-mouse antibody (available from Molecular Probes).
In this example, the cell mixture derived from a whole heart extracted from a neonatal rat heart, which was labeled with a mitochondrial indicator, was prepared by the same method as that described in Example 1, except that T3168 (available from Molecular Probe) was used as a mitochondrial indicator.
Thus selected cells were cultured followed by paraformaldehyde fixation by the same method as that described in Example 5, which were labeled with mouse anti-Sarcomeric α-Actinin Antibody (available from SIGMA).
Neonatal rat heart was treated with 0.025% (w/v) of collagenase (available from SIGMA) and trypsin (available from GIBCO) to collect a cell population. Cells dispersed in the culture medium were exposed to 1 μM (final concentration) of a mitochondrial indicator, T668 (available form Molecular Probe) for 15 minutes at 37° C., washed 3 times, and immediately analyzed by FACS.
Neonatal rat heart was treated with collagenase and trypsin to collect a cell population. Cells dispersed in the culture medium were exposed to 1 μM (final concentration) of a mitochondrial indicator S7563 for 15 minutes at 37° C., washed 3 times, and immediately analyzed by FACS.

[2] = system: cell mixture derived from a mouse embryonic stem cell; experiment: Labeling of mouse embryonic stem cell derived cell mixture with mitochondrial indicator, FACS sorting, Actinin immunostaining
Source text: as §3

[3] = system: cell mixture derived from a mouse embryonic stem cell; experiment: Fluorescent microscope observation of labeled mouse embryonic stem cell derived cell mass; settings: labeled as Example 1, adhesion culture 5 days after removal of M7512
Description: Fourteen days after differentiation and induction, a cell mass containing an autonomously pulsating cardiomyocyte was confirmed to be formed in the culture vessel, to which 10^−8 M of all trans-retinoic acid was added for further enhancing the degree of differentiation/induction of the cardiomyocyte.
At 21st day from differentiation/induction, a cell mass containing an autonomously pulsating cardiomyocyte was dispersed into separate cells to form a cell mixture. Thus prepared cell mixture was labeled with M7512 under the same condition as that of Example 1 and cultured under the condition of the adhesion culture for further 5 days after removal of M7512. After further culture for 5 days, a cell mass containing an autonomously pulsating cardiomyocyte prepared under the culture condition was observed using a fluorescent microscope.

[4] = system: cell mixture derived from a whole heart extracted from neonatal rat heart; experiment: Fluorescent microscope observation of labeled neonatal rat whole-heart cell mixture; settings: 100 nM, 10 minutes at 37° C., cultured 24 hours
Description: as §1, §2

[5] = system: rat cells derived from a whole heart; experiment: Staining of rat whole-heart cells from 11th day post conception to 8 days after birth and FACS analysis; settings: 11th day post conception to 8 days after birth; 1 μM, 15 minutes at 37° C.
Description: Rat heart obtained at 11th day post conception to 8 days after birth was treated with collagenase and trypsin to collect a cell population. Cells dispersed in the culture medium were exposed to 1 μM (final concentration) of a mitochondrial indicator T668 for 15 minutes at 37° C., washed 3 times, and immediately analyzed by FACS. In consequence, the cell population was isolated by T668 fluorescent intensity. […] Therefore, it is shown that it is possible to presume the maturity of the cardiomyocyte by the method provided by the present specification.

whole fetal cells = experiment: Staining of whole fetal cells (fetal rat of 9th day post conception), FACS sorting, Actinin immunostaining; settings: 1 μM, 15 minutes at 37° C.
Description: Fetal rat of 9th day post conception was treated with collagenase and trypsin to collect cell population. Cells dispersed in the culture medium were exposed to 1 μM (final concentration) of a mitochondrial indicator T668 for 15 minutes at 37° C., washed 3 times, and immediately subjected to FACS analysis. One single cell population was mainly observed as a cell population based on the fluorescent intensity. On the other hand, in the high fluorescent intensity area in which the cardiomyocyte was predicted to be detected based on the analysis of a whole heart sample from the later development stage, a definite cell population could not be found (FIG. 10-1).
The cells were cultured and immunostained with an antibody against a cardiomyocyte marker, Actinin. […] Since the cardiomyocyte is extremely immature in the fetus of 9th day post conception (early embryo), it is considered in the art that quantitative alteration of the mitochondria has not completely occurred.

[6] = system: fetal rat cells derived from a whole heart; experiment: Staining of fetal rat whole-heart cells (13th day post conception), FACS sorting, anti-Actinin immunostaining; settings: fetal rat heart of 13th day post conception; 1 μM, 15 minutes at 37° C.
Description: Fetal rat heart of 13th day post conception was treated with collagenase and trypsin to collect a cell population. Cells dispersed in the culture medium were exposed to 1 μM (final concentration) of a mitochondrial indicator T668 for 15 minutes at 37° C., washed 3 times, and immediately subjected to FACS analysis. The cells were separated into 3 groups of cell population based on T668 fluorescent intensity (FIG. 9-1).
Then, the cardiomyocyte was identified by immunostaining of the cultured cell using anti-Actinin antibody.

[7] = system: neonatal rat cells derived from a whole heart; experiment: Double staining with T668 and M7514, comparative FACS analysis of transmembrane potential per mitochondria
Description: Cell population was collected using the same materials and the same method as those described in Example 8. Thus collected cardiomyocytes were stained with a mitochondrial indicator, M7514 (available from Molecular Probe), independent of the transmembrane potential which can specifically stain mitochondria and with a mitochondrial indicator T668 dependent on the transmembrane potential which can also specifically stain mitochondria. The cells were analyzed using FACS immediately after the staining. It is possible to separately detect the fluorescence of T668 and that of M7514 since the wavelength of the fluorescence from T668 is different from that from M7514. In this example, three groups of cell population were detected based on T668 fluorescence as an indicator.
Next, each cell population is separated based on the ratio of fluorescent intensity derived from T668 divided by fluorescent intensity derived from M7514. […]

[8] = 1 μM indicator, 15 minutes at 37° C., immediate FACS, anti-Actinin immunostaining
[9] = 100 nM indicator, 10 minutes at 37° C., FACS sorted, anti-Sarcomeric α-Actinin, 30% before selection
[10] = 1 μM, 15 minutes at 37° C., immediate FACS, Actinin immunostaining

## COC(=O)c1ccccc1-c1c2ccc(=N)cc-2oc2cc(N)ccc12.Cl [R302]
[1]; [8]
  composition of cell population with the highest fluorescent intensity: cells of interest can also be obtained

## CCN1C(=CC=Cc2n(CC)c3cc(Cl)c(Cl)cc3[n+]2CC)N(CC)c2cc(Cl)c(Cl)cc21 [T3168, 1H-Benzimidazolium, 5,6-dichloro-2-[3-(5,6-di-chloro-1,3-diethyl-1,3-dihydro-2H-benzimidazol-2-ylidene)-1-propenyl]-1,3-diethyl-, iodide, (E)-]
[1]; [9]
  percentage of cardiomyocyte in cells with relatively higher fluorescent intensity (P5 area): more than 95%

## ClCc1ccc(C2=c3cc4c5c(c3Oc3c2cc2c6c3CCCN6CCC2)CCC[N+]=5CCC4)cc1.[Cl-] [M7512, 1H,5H,11H,15H-Xantheno[2,3,4-ij:5,6,7-i′j′]diquinolizin-18-ium, 9-[4-(chloromethyl)phenyl]-2,3,6,7,12,13,16,17-octahydro-, chloride]
[2]; M7512 labeling as Example 1, 5 days culture after removal, 10% before selection
  percentage of cardiomyocyte in cells collected from P2 area (relatively higher fluorescent intensity): more than 80%
[3]
  labeling of autonomously pulsating cardiomyocytes compared with other types of cells: strongly labeled
[4]
  indicator-based fluorescence under fluorescent microscope: clearly observed in a cardiomyocyte
[1]; [9]
  percentage of cardiomyocyte in cells with relatively higher fluorescent intensity (P5 area): more than 99%
  percentage of cardiomyocyte in cells with relatively lower fluorescent intensity (P6 area): approximately equal to the percentage of the cardiomyocyte before the selection

## COC(=O)c1ccccc1-c1c2ccc(N(C)C)cc2[o+]c2cc(N(C)C)ccc12 [T668, Xanthylium, 3,6-bis(dimethylamino)-9-(2-(methoxycarbonyl)phenyl)-, perchlorate]
[2]; [10]
  composition of main cell population: Almost all of the cells collected consist of a non-cardiomyocyte
  percentage of cardiomyocyte in high fluorescent cell population: More than 98%
[5]
  high fluorescent cardiomyocyte population as the development stage progressed: increased in number
Whole fetal cells
  percentage of cardiomyocyte in high fluorescent cell population: more than 95%
[6]
  composition of cell population with the highest fluorescent intensity: almost all cells of the cell population with the highest intensity of T668 consist of a cardiomyocyte; also recorded: almost all cells of the cell population with the highest intensity of T668 fluorescent signal consist of the cardiomyocyte
  composition of cell population with the middle fluorescent intensity: almost all cells of the cell population with the middle fluorescent population consist of a non-cardiomyocyte; also recorded: almost all cells of the cell population with the middle fluorescent intensity consist of the non-cardiomyocyte
[7]; cell population identified as a cardiomyocyte based on T668 signal
  cells with ratio of T668 fluorescent intensity to M7514 fluorescent intensity of more than 150%, share of total cells: 90%
[7]; cell population identified as a non-cardiomyocyte based on T668 signal
  cells with ratio of T668 fluorescent intensity to M7514 fluorescent intensity of more than 150%, share of total cells: 13%
[1]; [8]
  composition of cell population with the highest fluorescent intensity: almost all cells of the cell population with the highest intensity of T668 fluorescent signal consist of a cardiomyocyte
  composition of cell population with the middle fluorescent intensity: almost all cells of the cell population with the middle fluorescent intensity consist of a non-cardiomyocyte
